Results as given in patent US7880010B2, “Crystalline forms of a dimethylphenyl compound” (Theravance, Inc., priority 2006, dated 2011).

What was measured:
[1] = target: T1, human β1 adrenergic receptor (Homo sapiens, UniProt P08588); assay: Radioligand binding assay for human β adrenergic receptors; details: [3H]-dihydroalprenolol 1 nM
T1 construct: expressed in transfected cells; host or cells: HEK-293
Description: (§1) Human embryonic kidney (HEK-293) cell lines stably expressing cloned human β1 and β2 adrenergic receptors or Chinese hamster ovarian (CHO) cell lines stably expressing cloned human β3 adrenergic receptors were grown to near confluency in DMEM or Hams F-12 media with 10% FBS in the presence of 500 μg/mL Geneticin. The cell monolayer was lifted with 2 mM EDTA in PBS. Cells were pelleted by centrifugation at 1,000 rpm, and cell pellets were either stored frozen at −80° C. or membranes were prepared immediately for use. For preparation of β1 and β2 receptor expressing membranes, cell pellets were re-suspended in lysis buffer (10 mM HEPES/HCl, 10 mM EDTA, pH 7.4 at 4° C.) and homogenized using a tight-fitting Dounce glass homogenizer (30 strokes) on ice. […] The protein concentration of the membrane suspension was determined by the methods described in Lowry et al., 1951, Journal of Biological Chemistry, 193, 265; and Bradford, Analytical Biochemistry, 1976, 72, 248-54. […]
(§2) Binding assays were performed in 96-well microtiter plates in a total assay volume of 100 μL with 10-15 μg of membrane protein containing the human β1, β2 or β3 adrenergic receptors in assay buffer (75 mM Tris/HCl pH 7.4 at 25° C., 12.5 mM MgCl2, 1 mM EDTA, 0.2% BSA). […] Non-specific binding was determined in the presence of 10 μM propranolol. […] Filter plates were washed three times with filtration buffer (75 mM Tris/HCl pH 7.4 at 4° C., 12.5 mM MgCl2, 1 mM EDTA) to remove unbound radioactivity. The plates were then dried and 50 μL of Microscint-20 liquid scintillation fluid (Packard BioScience Co., Meriden, Conn.) was added and plates were counted in a Packard Topcount liquid scintillation counter (Packard BioScience Co., Meriden, Conn.). Binding data were analyzed by nonlinear regression analysis with the GraphPad Prism Software package (GraphPad Software, Inc., San Diego, Calif.) using the 3-parameter model for one-site competition. The curve minimum was fixed to the value for nonspecific binding, as determined in the presence of 10 μM propranolol. […]

[2] = target: T2, human β2 adrenergic receptor (Homo sapiens, UniProt P07550); assay: as above; details: [3H]-dihydroalprenolol 1 nM
T2 construct: expressed in transfected cells; host or cells: HEK-293
T2 sequence (P07550 whole entry): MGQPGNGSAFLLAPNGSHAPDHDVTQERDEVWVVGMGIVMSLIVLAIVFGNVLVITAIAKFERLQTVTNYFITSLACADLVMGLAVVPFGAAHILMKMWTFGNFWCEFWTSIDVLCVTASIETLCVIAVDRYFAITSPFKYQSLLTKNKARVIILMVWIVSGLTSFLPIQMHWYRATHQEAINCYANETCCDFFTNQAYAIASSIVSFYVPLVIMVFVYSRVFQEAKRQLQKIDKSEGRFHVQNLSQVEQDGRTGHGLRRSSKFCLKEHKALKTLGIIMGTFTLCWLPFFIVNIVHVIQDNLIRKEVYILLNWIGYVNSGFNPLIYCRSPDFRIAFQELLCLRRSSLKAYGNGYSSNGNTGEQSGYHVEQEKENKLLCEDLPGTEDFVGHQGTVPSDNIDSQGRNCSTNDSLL
Description: as §1, §2

[3] = target: T3, human β3 adrenergic receptor (Homo sapiens, UniProt P13945); assay: as above; details: [125I]-(−)-iodocyanopindolol 0.5 nM
T3 construct: expressed in transfected cells; host or cells: CHO / CHO-K1
T3 sequence (P13945 whole entry): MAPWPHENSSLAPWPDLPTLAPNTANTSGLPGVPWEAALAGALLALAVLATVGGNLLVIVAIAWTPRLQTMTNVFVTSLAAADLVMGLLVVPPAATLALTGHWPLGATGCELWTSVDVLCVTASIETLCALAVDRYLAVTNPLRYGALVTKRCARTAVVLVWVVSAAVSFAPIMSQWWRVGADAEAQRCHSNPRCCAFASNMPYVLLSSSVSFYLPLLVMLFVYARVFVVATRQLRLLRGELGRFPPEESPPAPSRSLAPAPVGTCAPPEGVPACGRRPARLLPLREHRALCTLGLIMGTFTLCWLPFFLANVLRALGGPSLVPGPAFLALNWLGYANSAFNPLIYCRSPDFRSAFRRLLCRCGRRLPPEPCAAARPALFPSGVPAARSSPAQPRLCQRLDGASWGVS
Description: as §1, §2

[4] = target: T4, human β2 adrenergic receptor (endogenous, BEAS-2B cells) (Homo sapiens, UniProt P07550); assay: Whole-cell cAMP Flashplate assay with lung epithelial cell line (BEAS-2B); format: cell-based
T4 construct: using a cell line expressing endogenous levels of the β2 adrenergic receptor; host or cells: BEAS-2B human lung epithelial cell line
T4 sequence (P07550 whole entry): as the sequence (P07550 whole entry) above
Description: In this assay, the agonist potency and intrinsic activity of a test compound were determined using a cell line expressing endogenous levels of the β2 adrenergic receptor.
On the day of the assay, cells were rinsed with PBS, lifted by scraping with 5 mM EDTA in PBS, and counted. Cells were pelleted by centrifugation at 1,000 rpm and re-suspended in stimulation buffer pre-warmed to 37° C. at a final concentration of 600,000 cells/mL. Cells were used at a final concentration of 100,000 to 120,000 cells/well in this assay. […] Test compounds were tested in the assay at 11 different concentrations, ranging from 10 μM to 10 pM. Reactions were incubated for 10 min at 37° C. and stopped by addition of 100 μL of ice-cold detection buffer. Plates were sealed, incubated over night at 4° C. and counted the next morning in a Topcount scintillation counter (Packard BioScience Co., Meriden, Conn.). […] Data were analyzed by nonlinear regression analysis with the GraphPad Prism Software package (GraphPad Software, Inc., San Diego, Calif.) using the 4-parameter model for sigmoidal dose-response.

T1 sequence (P08588 whole entry): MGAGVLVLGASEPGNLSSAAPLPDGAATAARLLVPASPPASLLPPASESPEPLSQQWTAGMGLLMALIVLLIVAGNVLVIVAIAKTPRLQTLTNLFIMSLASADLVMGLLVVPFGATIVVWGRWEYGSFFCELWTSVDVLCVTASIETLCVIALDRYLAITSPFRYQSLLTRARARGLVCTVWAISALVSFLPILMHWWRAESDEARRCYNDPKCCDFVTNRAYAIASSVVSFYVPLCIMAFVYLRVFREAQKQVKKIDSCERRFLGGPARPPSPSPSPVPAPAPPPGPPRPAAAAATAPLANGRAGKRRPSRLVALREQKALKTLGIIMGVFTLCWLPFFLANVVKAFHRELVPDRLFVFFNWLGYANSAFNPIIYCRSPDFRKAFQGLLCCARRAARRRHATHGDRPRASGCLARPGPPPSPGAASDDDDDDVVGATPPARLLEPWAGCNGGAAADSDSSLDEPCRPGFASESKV

`Cc1cc(NC(=O)CCN2CCC(OC(=O)Nc3ccccc3-c3ccccc3)CC2)c(C)cc1CNC[C@H](O)c1ccc(O)c(NC=O)c1` [compound of formula I, biphenyl-2-ylcarbamic acid 1-[2-(4-{[(R)-2-(3-formylamino-4-hydroxyphenyl)-2-hydroxyethylamino]methyl}-2,5-dimethylphenylcarbamoyl)ethyl]-piperidin-4-yl ester] was tested, and the Ki [1] was > 1000 nM, the Ki [2] was < 10 nM and the Ki [3] was > 1000 nM. For the same compound, the EC50 ([4]; cAMP) was < 10 nM and the intrinsic activity ([4]; compared with full β2 agonist isoproterenol (1.0)) was “greater than 0.3”.
